Series [1] concerns transplanted liver of aged mice. The series can be described thus: Efficiency of liver transplantation from aged mice into young mice. In kind it is in vivo, mouse. The protocol: In addition, the efficiency of liver transplantation was evaluated. Livers extracted from aged mice of Example 21-1, untreated and treated with LX-403, were transplanted into young 3-month-old mice, and the efficiency of liver transplantation was evaluated 3 days later through analysis of aging and liver damage markers. As a result, when treated with LX-403, the amount of p16, an aging-related marker of the liver after transplantation, and serum AST and ALT, liver damage markers, decreased compared to the control group. […] This improvement in transplantation efficiency was also confirmed when the livers extracted from aged mice were transplanted after removing senescent cells under ex vivo conditions, such as by culturing them in an LX-403-containing medium.

The test system of series [2] is senescent A549 cells. The series can be described thus: Survival of senescent A549 cells treated with supernatant from death-induced cancer cells, Example 14. In kind it is cell-based, human. The note with it: for viability at 30 µM: Homo sapiens. The protocol:
In the same way as Examples 12 and 13, senescence of cancer (A549) cells was induced by treatment with doxorubicin or the control group (DMSO), and the cells were cultured. The cells were treated with LX-405 at a concentration of 30 μM. 3 days later, cell viability was measured using CellTiter-Glo Luminescent Cell Viability Assay (Promega) or an optical microscope. In the same manner as in Example 13, the medium supernatants comprising secreted fluid from normally proliferating and senescent cancer cells was obtained. Normally proliferating and senescent-induced cancer cells were treated with the medium supernatants.
Furthermore, other test compounds were used in the same manner in Example 12 above at high concentrations of 30 μM, 90 μM, and 270 μM, respectively, and the cultured medium supernatant comprising secreted fluid from aged cancer cells that were killed were obtained. As a result of measuring the degree of death of aged cancer cells, it was confirmed that aged cancer cells can be effectively removed, as shown in Example 12.

Series [3] concerns obesity-induced aged C57BL6J mice. The series can be described thus: Open field test in obese aged mice given senescent cells killed by test compound, Example 16. In kind it is in vivo, mouse. The note with it: senescent preadipocytes killed by test compound sc; no administration = 100%.
Series [4] has as its system mice with peritoneal fibrosis induced by chlorhexidine gluconate. Put plainly: Chlorhexidine gluconate (CHG) peritoneal fibrosis in mice, Example 20. The class given is in vivo, mouse. The text has this: The anti-fibrosis activity of LX-5701 was confirmed using the same method as in Example 6-2 of WO2023-085787 A1. The thickness of the peritoneal mesothelial cell layer was quantitatively evaluated in mice with peritoneal fibrosis induced by chlorhexidine gluconate (CHG) under untreated and LX-5701-treated conditions.

Series [5] has as its system obesity-induced aged C57BL6J mice. The series can be described thus: p16 and p21 mRNA in obesity-aged mice, Example 23-2, Table 42. The class given is in vivo, mouse. The note with it: 360 mg/kg oral daily for 21 days, untreated 100%. The protocol: 15-week-old male C57BL6J mice (The Jackson Laboratory) were induced to obesity by a high-fat diet using the same method as in Example 9-1 WO2023-085787 A1. After acclimation to the experimental environment for one week, the mice were randomly assigned to experimental and control groups. […] LX-3002 was mixed in distilled water with 4% DMSO, 30% PEG300, and 5% Tween80 and administered orally at a concentration of 10 mg/kg daily for 21 days. LX-5701 was mixed in PBS and administered orally at a concentration of 360 mg/kg daily for 21 days. LX-6807 was mixed in saline and administered intraperitoneally at a concentration of 1 mg/kg daily for 21 days. The control group received only the solution in the same volume. After the end of drug administration, the methods described in each example below were performed.
Mice were sacrificed using the same method as in Example 7-2 of WO2023-085787 A1. RNA was extracted from organ tissues from each site, and the synthesized cDNA was used for qRT-PCR (quantitative real-time PCR) analysis. […] The mRNA levels of p16 and p21 after obesity induction were calculated as 100% and compared with the mRNA levels of p16 and p21 after LX-5701 treatment.

Series [6] relates to doxorubicin-induced aged C57BL6J mice. The series can be described thus: SA-β-gal staining in doxorubicin-aged mice, Example 22-3, Table 32. The class given is in vivo, mouse. The note with it: staining area, untreated aged = 100. The protocol:
Eight-week-old male C57BL6J mice (KRIBB Laboratory Animal Resource Center) were acclimated to the experimental environment for one week. Afterwards, the anticancer agent doxorubicin was administered intraperitoneally at a concentration of 10 mg/kg, inducing aging for more than 10 days. The aging-induced mice were randomly assigned to experimental and control groups. LX-403 was mixed with a 10% ethanol solution of PEG400 and administered orally at a concentration of 25 mg/kg or intradermally at a concentration of 1 μM for 21 days. LX-1801 was mixed in distilled water with 4% DMSO, 30% PEG300, and 5% Tween80 and administered intradermally at a concentration of 0.4 μM daily for 21 days. LX-2001 was mixed in PBS and administered intradermally at a concentration of 2 μM daily for 21 days. LX-2002 was mixed in distilled water with 4% DMSO, 30% PEG300, and 5% Tween80 and administered intradermally at a concentration of 2 μM daily for 21 days. […] LX-2005 was mixed in distilled water with 4% DMSO, 30% PEG300, and 5% Tween80 and administered intradermally at a concentration of 90 μM daily for 21 days. LX-2007 was mixed in distilled water with 4% DMSO, 30% PEG300, and 5% Tween80 and administered intradermally at a concentration of 90 μM daily for 21 days. […] LX-3002 was mixed in distilled water with 4% DMSO, 30% PEG300, and 5% Tween80 and administered orally at a concentration of 10 mg/kg daily for 21 days. […] LX-5411 was mixed in 5% phosphate-buffered saline (PBS) and administered orally at a concentration of 10 mg/kg daily for 21 days or intradermally at a concentration of 3 μM. LX-5701 was mixed in PBS and administered orally at a concentration of 360 mg/kg daily for 21 days. LX-6807 was mixed in saline and administered intraperitoneally at a concentration of 1 mg/kg daily for 21 days. The control group received only the solution in the same volume. After the end of drug administration, the methods described in each example below were performed.
Mice were sacrificed as described in Example 7-3 of WO2023-085787 A1, and tissue sections were prepared from each organ tissue site and stained for the aging-related marker SA-β-gal.

The structures appear in SMILES notation.

`O=C(C(C[N+](=O)[O-])=NO)N1CCN(C(c2ccc(Cl)cc2)c2ccc(Cl)cc2)CC1` [LX-403]: in series [1] (3 days after transplantation), the “p16 of transplanted liver, serum AST and ALT” value is given as “decreased”. Also, in series [1] (mouse, in vivo), the “efficiency of liver transplantation” value is recorded as “improves the efficiency of long-term liver transplantation”.
Turning to `COC(=O)c1ccc([C@H]2c3[nH]c4ccccc4c3C[C@H](C(=O)OC)N2C(=O)CCl)cc1` [LX-405], in series [2] (A549, supernatant from No Cells), the Survival is listed as 98.2 (±2.8) %. Moreover, the viability at 30 µM was 78.8% in series [2] (A549, A549, supernatant from death-induced proliferating cells) and 72.5% in series [2] (A549, A549, supernatant from death-induced senescent cells).
For the compound `S=C(N/N=C1\CCCc2cccnc21)N1CCN(c2ccccn2)CC1` [LX-801], the “Open Field Test Time in Center” value in series [3] was 216.8 (±12.8) %.
For `O=C1C2CCN(CC2)C1CNC(=O)C(F)(F)F` (stereo not shown) [LX-5701], the “Submesothelial Thickness” value in series [4] is reported as 41.8 (±7.5) μm. In addition, in series [5] (Eye), the “p16 mRNA, Eye” value is on record as 71% and the “p21 mRNA, Eye” value was determined as 70%. For the same compound, in series [5] (Heart), the “p16 mRNA, Heart” value was determined as 80% and the “p21 mRNA, Heart” value was found to be 81%. Further, in series [5] (Liver), the “p16 mRNA, Liver” value was 63% and the “p21 mRNA, Liver” value is listed as 61%. Besides, in series [5] (Lung), the “p16 mRNA, Lung” value turned out to be 74% and the “p21 mRNA, Lung” value is reported as 77%. In series [5] (Muscle), the “p16 mRNA, Muscle” value came to 75% and the “p21 mRNA, Muscle” value is recorded as 64%. Besides, in series [5] (Skin), the “p16 mRNA, Skin” value is 77% and the “p21 mRNA, Skin” value is on record as 68%. Further, in series [5] (asWAT), the “p16 mRNA, asWAT” value is listed as 67% and the “p21 mRNA, asWAT” value was 79%. For the same compound, in series [5] (eWAT), the “p16 mRNA, eWAT” value is 65% and the “p21 mRNA, eWAT” value amounted to 55%. In addition, in series [5] (iBAT), the “p16 mRNA, iBAT” value turned out to be 72% and the “p21 mRNA, iBAT” value was determined as 80%. Besides, in series [5] (iWAT), the “p16 mRNA, iWAT” value amounted to 61% and the “p21 mRNA, iWAT” value is 51%. Moreover, the “SA-β-gal (%), Kidney” value in series [6] (Kidney) was 64 (±9.7) %. Moreover, in series [6] (Liver), the “SA-β-gal (%), Liver” value is given as 43 (±14.2) %. Also, in series [6] (Lung), the “SA-β-gal (%), Lung” value is 68 (±14.8) %. Further, in series [6] (eWAT), the “SA-β-gal (%), eWAT” value is 66 (±10.5) %.

For orientation: viability means the share of living cells, or the viability signal relative to a control.

Source of the values: US20260306460A1, “COMPOSITION FOR REMOVING AND INHIBITING SENESCENT CELLS, AND USES THEREOF” (LIFECEUTIX CO., LTD., priority 2023, published 2026).
